Results: US12458572B2, “Homogeneous liquid composition comprising 1,2-octanediol and use thereof” (Minasolve SAS, priority 2020, dated 2025)

experiment: log POW, n-octanol/water partition coefficient, OECD Test No. 117; type: physicochemical; settings: not given
Description: The partition coefficient between n-octanol and water, also called ‘log POW’ and performed according to OECD Test No. 117 at 25° C., of 1,2-octanediol is 2.1. […] A specialist trained in the art could therefore expect that a mixture of water, 1,2-octanediol and hydrophilic short chain alkanediols and/or alkanetriols would form a hydrophilic phase containing water, and a separate lipophilic phase containing 1,2-octanediol.
The miscibility of 1,2-octanediol with C3-C4 alkanediols is well-known. However, comparably large amounts of these diols are needed for lowering the melting point of 1,2-octanediol below 15° C. Furthermore, C3-C4 polyols are highly hydrophilic components with a log POW of ≤0, as detailed in the following table (Table 1).

Compound	log POW (25° C.)
OCC(O)CO [1,2,3-trihydroxypropane]	−1.75
CC(O)CO (stereo not shown) [1,2-propanediol]	1.07
OCCCCO [1,4-butanediol]	−0.88
CC(O)C(C)O (stereo not shown) [2,3-butanediol]	−0.92

same assay, conditions: OECD Test No. 117 at 25° C.

Compound	log POW (25° C.)
CCC(O)CO (stereo not shown) [1,2-butanediol]	−0.59
CCCCCCC(O)CO (stereo not shown) [1,2-octanediol]	2.1
CC(O)CCO (stereo not shown) [1,3-butanediol]	−0.92
OCCCO [1,3-propanediol]	0.71
CC(CO)CO [2-methyl-1,3-propanediol]	−0.6

experiment: Solubility in 1,2-octanediol; type: physicochemical; settings: not given
Description: The solubility of water in 1,2-octanediol exceeds 30% at 40° C. However, mixtures of 1,2-octanediol with water tend to form highly viscous gels at ambient temperature which are hard to handle.
Glycerol, with glycerine and 1,2,3-trihydroxypropane as well-known alternative names, is a C3 alkanetriol. The solubility of glycerol in 1,2-octanediol exceeds 30%. However, mixtures of 1,2-octanediol and glycerol tend to be highly viscous and might separate at low temperatures. Furthermore, the addition of high amounts of glycerol to skin care formulations may cause a sticky skin-feel.

Compound	solubility of glycerol in 1,2-octanediol
OCC(O)CO [1,2,3-trihydroxypropane]	exceeds 30%
